Reference: article PMC9120017, “Inhibition mechanism of the chloride channel TMEM16A by the pore blocker 1PBC” (Nature Communications, 2022)
Read-outs that look alike come from different tables or passages of the source.

Target: T1, wild-type mouse TMEM16A (Mus musculus, UniProt Q8BHY3)
T1 construct: expressed in transfected cells; host or cells: HEK293T
T1 sequence (Q8BHY3 1-960): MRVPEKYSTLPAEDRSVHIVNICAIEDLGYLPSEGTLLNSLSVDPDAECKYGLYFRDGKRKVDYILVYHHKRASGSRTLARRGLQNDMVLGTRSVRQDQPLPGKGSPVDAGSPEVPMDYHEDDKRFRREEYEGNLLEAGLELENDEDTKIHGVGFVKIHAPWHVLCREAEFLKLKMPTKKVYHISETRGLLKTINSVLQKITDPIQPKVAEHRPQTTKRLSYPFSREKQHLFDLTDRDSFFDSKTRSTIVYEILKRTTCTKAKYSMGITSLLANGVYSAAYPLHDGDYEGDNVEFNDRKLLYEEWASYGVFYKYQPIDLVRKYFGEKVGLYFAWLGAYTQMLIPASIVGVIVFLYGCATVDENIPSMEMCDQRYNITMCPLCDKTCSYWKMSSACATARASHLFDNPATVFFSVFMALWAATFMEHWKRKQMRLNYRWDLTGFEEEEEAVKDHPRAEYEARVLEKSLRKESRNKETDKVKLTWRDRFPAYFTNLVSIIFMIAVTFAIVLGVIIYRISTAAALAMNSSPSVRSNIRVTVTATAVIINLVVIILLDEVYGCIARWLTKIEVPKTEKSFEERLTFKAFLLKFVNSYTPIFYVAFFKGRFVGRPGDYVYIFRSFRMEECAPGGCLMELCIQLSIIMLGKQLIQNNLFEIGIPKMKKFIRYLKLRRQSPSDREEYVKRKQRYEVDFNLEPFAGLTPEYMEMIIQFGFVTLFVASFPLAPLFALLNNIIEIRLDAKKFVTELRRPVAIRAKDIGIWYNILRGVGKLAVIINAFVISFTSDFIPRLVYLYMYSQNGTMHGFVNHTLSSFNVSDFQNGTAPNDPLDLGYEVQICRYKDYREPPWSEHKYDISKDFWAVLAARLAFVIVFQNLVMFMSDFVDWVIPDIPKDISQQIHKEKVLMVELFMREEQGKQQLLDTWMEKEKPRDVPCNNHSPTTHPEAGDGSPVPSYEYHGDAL
Assay: Inside-out patch recording of 1PBC block, wild-type TMEM16A
Format: cell-based
Details: for remaining activity at 1 µM / remaining activity at 3 µM: read-out: I/Imax
Description: HEK293T cells (ATCC CRL-1573) were maintained in Dulbecco’s modified Eagle’s medium (DMEM; Sigma-Aldrich) supplemented with 10 U ml^−1 penicillin, 0.1 mg ml^−1 streptomycin (Sigma-Aldrich), 2 mM L-glutamine (Sigma-Aldrich), and 10% FBS (Sigma-Aldrich) in a humidified atmosphere containing 5% CO2 at 37 °C. HEK293S GnTI^− cells (ATCC CRL-3022) were maintained in HyClone HyCell TransFx-H medium (GE Healthcare) supplemented with 10 U ml^−1 penicillin, 0.1 mg ml^−1 streptomycin, 4 mM L-glutamine, 0.15% poloxamer 188 (Sigma-Aldrich), and 1% FBS in an atmosphere containing 5% CO2 at 185 rpm at 37 °C. The ac splice variant of mouse TMEM16A (UniProt ID: Q8BHY3), mouse TMEM16B (UniProt ID: Q8CFW1), or mouse TMEM16F (UniProt ID: Q6P9J9) bearing a 3C cleavage site, a Venus YFP, a Myc tag, and a Streptavidin-binding peptide (SBP) downstream of the open reading frame in a modified pcDNA3.1 vector (Invitrogen) were used as described previously[21],[31]. Mutations were introduced using a modified QuikChange method[58] and were verified by sequencing.
HEK293T cells were transfected with 3–4 μg DNA per 6 cm Petri dish using the calcium phosphate co-precipitation method and were used within 24–96 h after transfection. Recordings were performed on inside-out patches excised from HEK293T cells expressing the construct of interest. Patch pipettes were pulled from borosilicate glass capillaries (O.D. 1.5 mm, I.D. 0.86 mm, Sutter Instrument) and were fire-polished with a microforge (Narishige) before use. Pipette resistance was typically 3–8 MΩ when filled with the recording solutions detailed below. Seal resistance was typically 4 GΩ or higher. Voltage-clamp recordings were made using Axopatch 200B, Digidata 1550, and Clampex 10.7 (Molecular Devices). Analog signals were filtered with the in-built 4-pole Bessel filter at 10 kHz and were digitized at 20 kHz. Solution exchange was achieved using a gravity-fed system through a theta glass pipette mounted on an ultra-fast piezo-driven stepper (Siskiyou). […] All recordings were performed at 20 °C.
A symmetrical ionic condition was used throughout. Stock solution with Ca^2+-EGTA contained 150 mM NaCl, 5.99 mM Ca(OH)2, 5 mM EGTA, and 10 mM HEPES at pH 7.40. Stock solution with EGTA contained 150 mM NaCl, 5 mM EGTA, and 10 mM HEPES at pH 7.40. Free Ca^2+ concentrations were adjusted by mixing the stock solutions at the required ratios calculated using the WEBMAXC program (http://web.stanford.edu/~cpatton/webmaxcS.htm). Patch pipettes were filled with the stock solution with Ca^2+-EGTA, which has a free Ca^2+ concentration of 1 mM. 1PBC (ChemBridge) stock was reconstituted in anhydrous DMSO (Sigma-Aldrich) at 100 mM and stored at −20 °C. Working solutions with 1PBC were prepared by serial dilution. Unless otherwise stated, experiments were performed at a saturating Ca^2+ concentration as shown in Supplementary Table 1 and the primary data were corrected for current rundown as described previously[21],[25].
Concentration-response relations, obtained from the ratio of the I-V plots before and after the application of the blocker, were fitted to the Hill equation,1 I/Imax=1/1+IC50/[blocker]^h where I/Imax is the normalized current responses, IC50 defines the concentration at which inhibition is at its half-maximum, and h is the Hill coefficient.

Hill coefficient for 1PBC block: 1
IC50 (0 mV, 2 µM Ca2+): 4.4 µM
IC50 (0.4 μM Ca2+, 80 mV, empirical Hill fit of data scaled to open probability): 3.2 µM
IC50 (0.8 μM Ca2+, 80 mV, empirical Hill fit of data scaled to open probability): 2.13 µM
Steady-state current (normalized) (1 µM 1PBC, 0 mV, 2 µM Ca2+): 0.001783
remaining activity at 1 µM (1 µM 1PBC, 0 mV, 2 µM Ca2+): 73%
I/Imax scaled to open probability (1 µM 1PBC, 400 nM Ca2+, 80 mV): 0.3757
I/Imax scaled to open probability (1 µM 1PBC, 800 nM Ca2+, 80 mV): 0.4419
I/Imax scaled to open probability (1 µM 1PBC, 2 µM Ca2+, 80 mV): 0.5218
Steady-state current (normalized) (1 µM 1PBC, 20 mV, 2 µM Ca2+): 0.134
remaining activity at 1 µM (1 µM 1PBC, 20 mV, 2 µM Ca2+): 68.9%
Steady-state current (normalized) (1 µM 1PBC, 40 mV, 2 µM Ca2+): 0.2463
remaining activity at 1 µM (1 µM 1PBC, 40 mV, 2 µM Ca2+): 65.3%
Steady-state current (normalized) (1 µM 1PBC, 60 mV, 2 µM Ca2+): 0.3454
remaining activity at 1 µM (1 µM 1PBC, 60 mV, 2 µM Ca2+): 62.6%
Steady-state current (normalized) (1 µM 1PBC, 80 mV, 2 µM Ca2+): 0.4256
remaining activity at 1 µM (1 µM 1PBC, 80 mV, 2 µM Ca2+): 60.1%
Steady-state current (normalized) (1 µM 1PBC, 100 mV, 2 µM Ca2+): 0.5103
remaining activity at 1 µM (1 µM 1PBC, 100 mV, 2 µM Ca2+): 60.1%
Steady-state current (normalized) (1 µM 1PBC, 120 mV, 2 µM Ca2+): 0.5951
remaining activity at 1 µM (1 µM 1PBC, 120 mV, 2 µM Ca2+): 61.1%
Steady-state current (normalized) (1 µM 1PBC, 140 mV, 2 µM Ca2+): 0.7035
remaining activity at 1 µM (1 µM 1PBC, 140 mV, 2 µM Ca2+): 64.7%
Steady-state current (normalized) (1 µM 1PBC, -20 mV, 2 µM Ca2+): -0.1486
remaining activity at 1 µM (1 µM 1PBC, -20 mV, 2 µM Ca2+): 77.2%
Steady-state current (normalized) (1 µM 1PBC, -40 mV, 2 µM Ca2+): -0.3126
remaining activity at 1 µM (1 µM 1PBC, -40 mV, 2 µM Ca2+): 80.5%
Steady-state current (normalized) (1 µM 1PBC, -60 mV, 2 µM Ca2+): -0.4807
remaining activity at 1 µM (1 µM 1PBC, -60 mV, 2 µM Ca2+): 83%
Steady-state current (normalized) (1 µM 1PBC, -80 mV, 2 µM Ca2+): -0.661
remaining activity at 1 µM (1 µM 1PBC, -80 mV, 2 µM Ca2+): 86.1%
Steady-state current (normalized) (1 µM 1PBC, -100 mV, 2 µM Ca2+): -0.836
remaining activity at 1 µM (1 µM 1PBC, -100 mV, 2 µM Ca2+): 88%
Steady-state current (normalized) (1 µM 1PBC, -120 mV, 2 µM Ca2+): -1.004
remaining activity at 1 µM (1 µM 1PBC, -120 mV, 2 µM Ca2+): 89.7%
Steady-state current (normalized) (1 µM 1PBC, -140 mV, 2 µM Ca2+): -1.145
remaining activity at 1 µM (1 µM 1PBC, -140 mV, 2 µM Ca2+): 89.1%
IC50 (2 μM Ca2+, 80 mV, empirical Hill fit of data scaled to open probability): 1.94 µM
Steady-state current (normalized) (3 µM 1PBC, 0 mV, 2 µM Ca2+): 0.001316
remaining activity at 3 µM (3 µM 1PBC, 0 mV, 2 µM Ca2+): 53.9%
I/Imax scaled to open probability (3 µM 1PBC, 400 nM Ca2+, 80 mV): 0.2553
I/Imax scaled to open probability (3 µM 1PBC, 800 nM Ca2+, 80 mV): 0.2864
I/Imax scaled to open probability (3 µM 1PBC, 2 µM Ca2+, 80 mV): 0.3306
Steady-state current (normalized) (3 µM 1PBC, 20 mV, 2 µM Ca2+): 0.0952
remaining activity at 3 µM (3 µM 1PBC, 20 mV, 2 µM Ca2+): 48.9%
Steady-state current (normalized) (3 µM 1PBC, 40 mV, 2 µM Ca2+): 0.1678
remaining activity at 3 µM (3 µM 1PBC, 40 mV, 2 µM Ca2+): 44.5%
SMILES: N#Cc1c(C(F)(F)F)cc(O)n2c1nc1ccccc12 [1PBC]
